What was measured:
rat EP4 receptor [1] = biological target: T1, rat EP4 receptor (Rattus norvegicus, UniProt P43114); test: Rat EP4 receptor binding assay (3H-PGE2 displacement, 293S cell membranes); conditions: displacement of 3H-prostaglandin E2, 293S membranes, 1 hour at 25° C.
T1 construct: expressed in transfected cells
From the text: (§1) The compounds of Formula I or II, which are useful in the methods of the present invention, bind to the prostaglandin E2 type 4 receptor (EP4 receptor). The full-length coding sequence for the human EP1 receptor is made in accordance with the procedure in Funk et al., Journal of Biological Chemistry, 1993, 268, 26767-26772. The full-length rat EP2 receptor is made in accordance with the procedure in Nemoto et al., Prostaglandins and other Lipid Mediators, 1997, 54, 713-725. The full-length coding sequence for the human EP3 receptor is made in accordance with the procedure in Regan et al., British Journal of Pharmacology, 1994, 112, 377-385. The full-length coding sequence for the rat EP4 receptor is made in accordance with the procedure in Sando et al., Biochem. Biophys. Res. Comm. 1994, 200,1329-1333. These full-length receptors are used to prepare 293S cells expressing the human EP1, rat EP2, human EP3 or rat EP4 receptors.
(§2) Human EP1, Rat EP2, Human EP3, Rat EP4 Receptor Binding Assay
(§3) The full-length receptors described above are used to prepare 293S cells expressing the EP1, EP2, EP3, and EP4 receptors.
(§4) 293S cells expressing either the human EP1, rat EP2, human EP3 or rat EP4 prostaglandin E2 receptors are generated according to methods known to those skilled in the art. Typically, PCR (polymerase chain reaction) primers corresponding to the 5′ and 3′ ends of the published full length receptor are made according to the well known methods disclosed above and are used in an RT-PCR (reverse transcriptase-polymerase chain reaction) reaction using the total RNA from human kidney (for EP1), rat kidney (for EP2), human lung (for EP3), or rat kidney (EP4) as a source. PCR products are cloned by the TA overhang method into pCR2.1 (Invitrogen Corporation, Carlsbad, Calif.) and identity of the cloned receptor is confirmed by DNA sequencing. For expression of the rat EP2 receptor, the confirmed cDNA is subcloned into the mammalian expression vector PURpCl, a vector generated by subcloning the selectable marker for puromycin resistance into the mammalian expression vector pCl (Promega, Madison, Wis.)
(§5) 293S cells are transfected with either the cloned human EP1 or EP3 receptor in pcDNA3 by electroporation. Stable cell lines expressing either the human EP1 or EP3 receptor are established following selection of transfected cells with G418. 293S cells are transfected with the cloned rat EP2 receptor in PURpCi by lipid mediated transfection. Stable cell lines expressing the rat EP2 receptor are established following selection of transfected cells with puromycin. 293S cells are transfected with the cloned rat EP4 receptor in pcDNA3 by lipid mediated transfection. Stable cell lines expressing the rat EP4 receptor are established following selection of transfected cells with Geneticin® (Invitrogen, Carlsbad, Calif.).
(§6) Clonal cell lines expressing the maximal number of receptors are chosen following a whole cell ^3H-PGE2 binding assay using unlabeled PGE2 as a competitor.
(§7) Membrane Preparation: All operations are performed at 4° C. Transfected cells expressing either prostaglandin E2 type 1, type 2, type 3, or type 4 (EP1, EP2, EP3, or EP4, respectively) receptors are harvested and suspended to 2 million cells per ml in Buffer A [50 mM Tris-HCl (pH 7.4), 10 mM MgCI2, 1 mM EDTA, 1 mM Pefabloc peptide, (Boehringer Mannheim Corp., Indianapolis, Ind.), 10 uM Phosporamidon peptide, (Sigma, St. Louis, Mo.), 1 uM pepstatin A peptide, (Sigma, St. Louis, Mo.), 10 uM elastatinal peptide, (Sigma, St. Louis, Mo.), 100 uM antipain peptide, (Sigma, St. Louis, Mo.)]. The cells are lysed by sonification with a Branson Sonifier (Branson Ultrasonics Corporation, Danbury, Conn.) in 2 fifteen-second bursts. Unlysed cells and debris are removed by centrifugation at 100 ×g for 10 min. Membranes are then harvested by centrifugation at 45,000×g for 30 minutes. […]

rat EP2 receptor = biological target: T2, rat EP2 receptor (Rattus norvegicus, UniProt Q62928); test: Rat EP2 receptor binding assay (3H-PGE2 displacement, 293S cell membranes); conditions: displacement of 3H-prostaglandin E2, 293S membranes, 1 hour at 25° C.
T2 construct: The full-length rat EP2 receptor is made in accordance with the procedure in Nemoto et al; expressed in transfected cells
T2 sequence (Q62928 whole entry): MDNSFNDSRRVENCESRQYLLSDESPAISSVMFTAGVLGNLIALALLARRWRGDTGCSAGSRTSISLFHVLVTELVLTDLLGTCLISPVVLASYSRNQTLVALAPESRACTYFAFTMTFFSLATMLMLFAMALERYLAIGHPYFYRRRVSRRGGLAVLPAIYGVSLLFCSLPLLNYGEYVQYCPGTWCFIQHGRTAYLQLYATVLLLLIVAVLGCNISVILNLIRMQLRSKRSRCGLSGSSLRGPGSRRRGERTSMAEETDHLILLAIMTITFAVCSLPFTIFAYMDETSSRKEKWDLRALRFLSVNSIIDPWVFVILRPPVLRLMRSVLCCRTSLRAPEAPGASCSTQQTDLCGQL
From the text: as §1, §2, §3, §4, §5, §6, §7

human EP1 receptor = biological target: T3, human EP1 receptor (Homo sapiens, UniProt P34995); test: Human EP1 receptor binding assay (3H-PGE2 displacement, 293S cell membranes); conditions: displacement of 3H-prostaglandin E2, 293S membranes, 1 hour at 25° C.
T3 construct: expressed in transfected cells
T3 sequence (P34995 1-402): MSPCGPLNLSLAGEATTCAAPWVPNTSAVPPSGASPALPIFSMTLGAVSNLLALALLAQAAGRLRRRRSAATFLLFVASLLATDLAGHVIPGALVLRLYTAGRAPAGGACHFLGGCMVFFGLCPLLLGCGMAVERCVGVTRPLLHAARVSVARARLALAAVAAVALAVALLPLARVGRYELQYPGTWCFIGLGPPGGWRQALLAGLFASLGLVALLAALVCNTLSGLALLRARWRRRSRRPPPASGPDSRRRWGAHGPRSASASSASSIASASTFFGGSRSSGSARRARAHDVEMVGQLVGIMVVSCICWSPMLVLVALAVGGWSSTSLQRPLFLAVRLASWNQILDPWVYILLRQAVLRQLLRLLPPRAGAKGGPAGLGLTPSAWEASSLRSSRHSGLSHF
From the text: as §1, §2, §3, §4, §5, §6, §7

human EP3 receptor = biological target: T4, human EP3 receptor (Homo sapiens, UniProt P43115); test: Human EP3 receptor binding assay (3H-PGE2 displacement, 293S cell membranes); conditions: displacement of 3H-prostaglandin E2, 293S membranes, 1 hour at 25° C.
T4 construct: expressed in transfected cells
T4 sequence (P43115 1-390): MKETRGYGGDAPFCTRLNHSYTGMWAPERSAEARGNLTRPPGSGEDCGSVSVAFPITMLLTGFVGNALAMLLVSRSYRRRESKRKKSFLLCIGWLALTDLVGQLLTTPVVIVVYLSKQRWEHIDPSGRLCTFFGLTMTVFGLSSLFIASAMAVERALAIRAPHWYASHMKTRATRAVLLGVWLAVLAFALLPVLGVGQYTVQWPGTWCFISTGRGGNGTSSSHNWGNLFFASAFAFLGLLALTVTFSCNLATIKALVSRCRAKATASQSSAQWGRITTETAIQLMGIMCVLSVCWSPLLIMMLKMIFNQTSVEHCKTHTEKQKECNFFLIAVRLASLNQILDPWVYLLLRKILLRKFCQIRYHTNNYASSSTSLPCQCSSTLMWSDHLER
From the text: as §1, §2, §3, §4, §5, §6, §7

rat EP4 receptor [2] = biological target: T1, rat EP4 receptor; test: Cyclic AMP elevation in 293S cell lines stably overexpressing recombinant rat EP4 receptors; type: cell-based; conditions: 293S cells expressing rat EP4, 1 mM IBMX, 12 minutes at 37° C.; read-out: EC50 in the cAMP (rat EP4) elevation assay
From the text: Determination of Cyclic AMP Elevation in 293S Cell Lines Stably Overexpressing Recombinant Rat EP4 Receptors Assay
cDNA representing the complete open reading frame of the rat EP4 receptor is generated by reverse transcriptase polymerase chain reaction using oligonucleotide primers based on published sequences. The full length coding sequence for the rat EP4 receptor is made in accordance with the procedure in Sando et al., Biochem. Biophys. Res. Comm. 1994, 200, 1329-1333, and RNA from rat kidney (EP4) as templates. 293S cells are transfected with the cloned rat EP4 receptor in pcDNA3 by lipid mediated transfection. Stable cell lines expressing the rat EP4 receptor are established following selection of transfected cells with Geneticin® (Invitrogen Corporation, Carlsbad, Calif.).
(§8) Clonal cell lines expressing the maximal number of receptors are chosen following a whole cell ^3H-PGE2 binding assay using unlabeled PGE2 as a competitor. […] Constitutive expression of the receptor in parental 293-S cells is negligible. A stable cell line containing the rat EP4 receptor is grown in Dulbecco's Mosified Eagle Medium/F12 (DMEM/F12) containing 10% fetal bovine serum and G418 (500 μg/ml) to 80% confluency.
cAMP responses in the 293-S/EP4 lines are determined by detaching cells from culture flasks in 1 ml of calcium (Ca++) and magnesium (Mg++) deficient phosphate buffered saline (PBS) via vigorous pounding and then rinsing the cells with calcium (Ca++) and magnesium (Mg++) deficient phosphate buffered saline (PBS). The cells are resuspended in MEM (Minimum Essential Medium), 1% BSA (bovine serum albumin), 50 mM HEPES (N-[2-Hydroxyethyl]piperazine-N′-[2-ethanesulfonic acid]) at 37° C. The cell suspension is counted on a hemacytometer and diluted by adding MEM (Minimum Essential Medium) to a final concentration of 1×10^6 cells/ml, and adding 3-isobutyl-1-methylxanthine (IBMX) to a final concentration of 1 mM. 200 microliters of cell suspension is immediately aliquoted into individual tubes and incubated for 10 minutes, uncovered, at 37° C., 5% CO2, 95% relative humidity. The compound of Formula I or II to be tested in either dimethylsulfoxide (DMSO) or ethanol is then added to cells at 1:100 dilutions such that the final DMSO or ethanol concentration is 1%. Typically, the cells are treated with 6-8 different concentrations (in 1 log increments, such as those described below) of the compound of Formula I or II. Typical concentrations of the compound of Formula I or II in this assay are between 10^−5M to 10^−10M. For example, a six point compound dose response assay tests the compound of Formula I or II at concentrations of 10^−5M, 10^−6M, 10^−7M, 10^−8M, 10^−9M and 10^—10M. Immediately after adding the test compound, the tubes are covered, mixed by inverting two times, and incubated at 37° C. for 12 minutes. Samples are then lysed by incubation at 100° C. for 10 minutes and immediately cooled on ice for 5 minutes to approximately 4° C. Cellular debris is pelleted by centrifugation at 3500×g for 5 minutes at approximately 4° C., and cleared lysates are transferred to fresh tubes. cAMP concentrations are determined using a commercially available ^125I-cAMP radioimmunoassay (RIA) kit (NEK-033, Perkin-Elmer Life Sciences, Inc., Boston, Mass.). The cleared lysates are diluted 1:100 in cAMP RIA assay buffer (included in kit) and centrifuged again. 50 microliters of the resulting supernatant is transferred to a 12×75 mm glass tube and data is collected by scintillation counting using a Wallac Cobra II Gamma Counter (Perkin-Elmer Wallac, Inc., Gaithersburg, Md.). EC50 calculations are performed on a calculator using linear regression analysis on the linear portion of the dose response curves or using Data Fitter.

rat EP4 receptor [3] = biological target: T1, rat EP4 receptor; test: Whole cell 3H-PGE2 binding, Scatchard analysis of 293S/EP4 transfectants; conditions: cell lines selected for compound screening
Procedure: as §8

T1 sequence (P43114 whole entry): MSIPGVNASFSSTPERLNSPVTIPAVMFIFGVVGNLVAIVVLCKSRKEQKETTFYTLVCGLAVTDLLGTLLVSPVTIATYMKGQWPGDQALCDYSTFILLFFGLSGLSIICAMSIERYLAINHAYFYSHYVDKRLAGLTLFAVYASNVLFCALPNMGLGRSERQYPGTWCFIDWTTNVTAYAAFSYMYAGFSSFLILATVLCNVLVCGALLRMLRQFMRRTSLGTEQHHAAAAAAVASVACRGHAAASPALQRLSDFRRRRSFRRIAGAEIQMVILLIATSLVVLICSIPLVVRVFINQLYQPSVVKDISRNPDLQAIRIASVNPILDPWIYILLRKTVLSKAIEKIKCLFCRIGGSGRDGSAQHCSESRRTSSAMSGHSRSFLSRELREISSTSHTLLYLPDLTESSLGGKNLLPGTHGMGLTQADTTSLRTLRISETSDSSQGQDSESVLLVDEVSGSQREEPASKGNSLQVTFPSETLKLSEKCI

SMILES | IC50 (rat EP4 receptor [1]) [µM] | IC50 (rat EP2 receptor) [µM] | IC50 (human EP1 receptor) [µM] | IC50 (human EP3 receptor) [µM] | EC50 (rat EP4 receptor [2]) [µM] | Kd (rat EP4 receptor [3]) [µM]
O=C1CCC(CCC(O)Cc2ccc(F)cc2)N1CCCCCCc1nn[nH]n1 (stereo not drawn) [Example 5, 5-[4-(4-Fluoro-phenyl)-3-hydroxy-butyl]-1-[6-(2H-tetrazol-5-yl)-hexyl]-pyrrolidin-2-one] | 0.508 | > 3.2 | > 3.2 | > 3.2 |  | 
O=C1CCC(CCC(O)Cc2cccc(F)c2)N1CCCCCCc1nn[nH]n1 (stereo not drawn) [Example 7, 5-[4-(3-Fluoro-phenyl)-3-hydroxy-butyl]-1-[6-(2H-tetrazol-5-yl)-hexyl]-pyrrolidin-2-one] | 0.096 | > 3.2 |  |  | 0.2 | 
O=C1CC[C@H](CC[C@@H](O)Cc2cccc(Cl)c2)N1CCCCCCc1nn[nH]n1 [Example 8, 5S-[4-(3-Chloro-phenyl)-3R-hydroxy-butyl]-1-[6-(2H-tetrazol-5-yl)-hexyl]-pyrrolidin-2-one] | 0.028 | > 3.2 |  |  | 0.0246 | 
O=C(O)CCCCCCN1C(=O)CC[C@@H]1CCC(O)Cc1cccc(Oc2ccccc2)c1 (stereo partly drawn) [Example 10, 7-{2S-[3-Hydroxy-4-(3-phenoxy-phenyl)-butyl]-5-oxo-pyrrolidin-1-yl}-heptanoic acid] | 0.536 |  |  |  |  | 
CCCCC[C@H](O)/C=C/[C@H]1[C@H](O)CC(=O)[C@@H]1C/C=C\CCCC(=O)O [PGE2, Prostaglandin E2] |  |  |  |  |  | 0.0029

Source: patent publication US20030176479A1, “Use of selective EP4 receptor agonists for the treatment of liver failure, loss of patency of the ductus arteriosus, glaucoma or ocular hypertension” (priority 2002, published 2003)
